Experimental data: patent publication US8192962B2, “Processes for detecting toxic substances” (Daikin Industries, Ltd., priority 2001, dated 2012)

System: Unknown protein yeast genes
Test: DNA chip mRNA expression in yeast, unknown protein yeast genes (Table 1)
Type: cell-based, Saccharomyces cerevisiae S288C
Method: Yeast (Saccharomyces cerevisiae S288C (α SUC2mal mel gap2 CUP1)) were incubated at 25° C. on YPD medium (yeast extract 1%, polypepton 2%, glucose 2%). One of toxic chemical substances was added to the cells at logarithmic growth phase, and the cells were further incubated for two hours. Cells were cultured without any chemical substance in the same condition, and were used as control. Concentrations of the chemical substances were defined to inhibit the growth of the yeast but not lead to death.
After completion of the incubation, the culture was centrifuged to collect the cells. To the cells, sodium acetate buffer (50 mM sodium acetate, 10 mM EDTA, 1% SDS) was added, and the mixture was shaken at 65° C. for five minutes, followed by returning to room temperature, and obtaining the supernatant, of which the procedures were repeated two times. To the supernatant, ½ amount of a solution of phenol/chloroform was added, and the mixture was centrifuged to give a supernatant, which was added with an equal amount of chloroform, and the mixture was centrifuged to give a supernatant. To the supernatant, an equal amount of isopropanol containing 0.3 M sodium acetate was added, and the mixture was allowed to stand at room temperature for 30 minutes, after which the mixture was centrifuged to give a sediment of the whole RNAs. Seventy % ethanol was added to the sediment, and the mixture was again centrifuged to give a sediment, which was then dried and dissolved in water. mRNA was isolated from the whole RNAs as followings. In view of the fact that a poly A chain is attached to the 3′ terminus of mRNA, a polynucleotide having a poly T structure which was immobilized on the surface of latex beads was used to trap the mRNA, and then the mRNA was washed and eluted with spine column (Oligotex-dT30<Super>mRNA Purification Kit, Takara). Reverse transcription of the mRNA was conducted with a reverse transcriptase (Super Script II Reverse Transcriptase; catalogue No. 18064-014, GibcoBRL) using fluorescence-labeled nucleotides to give cDNAs that were introduced with Cy3-dUTP or Cy5-dUTP during the reverse transcription.
The labeled cDNAs were dissolved in TE buffer (10mM Tris-HCl/1 mM EDTA, pH8.0), and the solution was dropped on the DNA chip containing the whole genes of yeast (DNA Chip Research Inc. Japan) so that the cDNAs were hybridized on the DNA chip at 65° C. for over 12 hours. The fluoresces intensity of the DNA chip was read with a scanner, and the ratio relative to the fluorescence intensity resulting from the absence of chemical substance was estimated as the following, which is shown in Tables 1 to 9: […]

In the case of CCCCCCCCCCCCc1ccc(S(=O)(=O)[O-])cc1.[Na+] [(17), sodium dodecylbenzosulfonate], the “The level of expressed mRNA in the presence of chemical substance/The level of expressed mRNA in the absence of chemical substance” value (yeast gene YKL195W, incubated two hours with chemical substance) is reported as 1.4, the “The level of expressed mRNA in the presence of chemical substance/The level of expressed mRNA in the absence of chemical substance” value (yeast gene YKR091W, incubated two hours with chemical substance) is reported as 1.6 and the “The level of expressed mRNA in the presence of chemical substance/The level of expressed mRNA in the absence of chemical substance” value (yeast gene YLR054C, incubated two hours with chemical substance) is reported as 1.6. For the same molecule, the “The level of expressed mRNA in the presence of chemical substance/The level of expressed mRNA in the absence of chemical substance” value (yeast gene YLR149C, incubated two hours with chemical substance) was 1.3, the “The level of expressed mRNA in the presence of chemical substance/The level of expressed mRNA in the absence of chemical substance” value (yeast gene YLR152C, incubated two hours with chemical substance) was 1.5 and the “The level of expressed mRNA in the presence of chemical substance/The level of expressed mRNA in the absence of chemical substance” value (yeast gene YLR194C, incubated two hours with chemical substance) was 1.0. The “The level of expressed mRNA in the presence of chemical substance/The level of expressed mRNA in the absence of chemical substance” value (yeast gene YLR324W, incubated two hours with chemical substance) was 1.2, the “The level of expressed mRNA in the presence of chemical substance/The level of expressed mRNA in the absence of chemical substance” value (yeast gene YLR350W, incubated two hours with chemical substance) was 1.6 and the “The level of expressed mRNA in the presence of chemical substance/The level of expressed mRNA in the absence of chemical substance” value (yeast gene YLR387C, incubated two hours with chemical substance) was 1.0. The “The level of expressed mRNA in the presence of chemical substance/The level of expressed mRNA in the absence of chemical substance” value (yeast gene YLR460C) was 1.0, the “The level of expressed mRNA in the presence of chemical substance/The level of expressed mRNA in the absence of chemical substance” value (yeast gene YML117W, incubated two hours with chemical substance) was 1.1 and the “The level of expressed mRNA in the presence of chemical substance/The level of expressed mRNA in the absence of chemical substance” value (yeast gene YMR009W, incubated two hours with chemical substance) was 2.7. For the same molecule, the “The level of expressed mRNA in the presence of chemical substance/The level of expressed mRNA in the absence of chemical substance” value (yeast gene YMR067C, incubated two hours with chemical substance) was 1.0, the “The level of expressed mRNA in the presence of chemical substance/The level of expressed mRNA in the absence of chemical substance” value (yeast gene YMR090W) was 1.8 and the “The level of expressed mRNA in the presence of chemical substance/The level of expressed mRNA in the absence of chemical substance” value (yeast gene YMR095C, incubated two hours with chemical substance) was 1.0. For the same molecule, the “The level of expressed mRNA in the presence of chemical substance/The level of expressed mRNA in the absence of chemical substance” value (yeast gene YMR097C, incubated two hours with chemical substance) was 1.4, the “The level of expressed mRNA in the presence of chemical substance/The level of expressed mRNA in the absence of chemical substance” value (yeast gene YMR102C, incubated two hours with chemical substance) was 2.4 and the “The level of expressed mRNA in the presence of chemical substance/The level of expressed mRNA in the absence of chemical substance” value (yeast gene YMR107W, incubated two hours with chemical substance) was 1.3. The “The level of expressed mRNA in the presence of chemical substance/The level of expressed mRNA in the absence of chemical substance” value (yeast gene YMR180C, incubated two hours with chemical substance) was 1.4, the “The level of expressed mRNA in the presence of chemical substance/The level of expressed mRNA in the absence of chemical substance” value (yeast gene YMR184W, incubated two hours with chemical substance) was 1.4 and the “The level of expressed mRNA in the presence of chemical substance/The level of expressed mRNA in the absence of chemical substance” value (yeast gene YMR191W, incubated two hours with chemical substance) was 1.2. The “The level of expressed mRNA in the presence of chemical substance/The level of expressed mRNA in the absence of chemical substance” value (yeast gene YMR295C, incubated two hours with chemical substance) was 2.1, the “The level of expressed mRNA in the presence of chemical substance/The level of expressed mRNA in the absence of chemical substance” value (yeast gene YMR316W, incubated two hours with chemical substance) was 6.9 and the “The level of expressed mRNA in the presence of chemical substance/The level of expressed mRNA in the absence of chemical substance” value (yeast gene YNL044W, incubated two hours with chemical substance) was 3.1. The “The level of expressed mRNA in the presence of chemical substance/The level of expressed mRNA in the absence of chemical substance” value (yeast gene YNL074C, incubated two hours with chemical substance) was 1.1, the “The level of expressed mRNA in the presence of chemical substance/The level of expressed mRNA in the absence of chemical substance” value (yeast gene YNL092W, incubated two hours with chemical substance) was 1.7 and the “The level of expressed mRNA in the presence of chemical substance/The level of expressed mRNA in the absence of chemical substance” value (yeast gene YNL115C, incubated two hours with chemical substance) was 1.6. The “The level of expressed mRNA in the presence of chemical substance/The level of expressed mRNA in the absence of chemical substance” value (yeast gene YNL156C, incubated two hours with chemical substance) was 1.8, the “The level of expressed mRNA in the presence of chemical substance/The level of expressed mRNA in the absence of chemical substance” value (yeast gene YNL234W, incubated two hours with chemical substance) was 1.0 and the “The level of expressed mRNA in the presence of chemical substance/The level of expressed mRNA in the absence of chemical substance” value (yeast gene YNL281W, incubated two hours with chemical substance) was 0.9. For the same molecule, the “The level of expressed mRNA in the presence of chemical substance/The level of expressed mRNA in the absence of chemical substance” value (yeast gene YNL305C, incubated two hours with chemical substance) was 1.7, the “The level of expressed mRNA in the presence of chemical substance/The level of expressed mRNA in the absence of chemical substance” value (yeast gene YNR068C, incubated two hours with chemical substance) was 1.0 and the “The level of expressed mRNA in the presence of chemical substance/The level of expressed mRNA in the absence of chemical substance” value (yeast gene YOL032W, incubated two hours with chemical substance) was 1.7. The “The level of expressed mRNA in the presence of chemical substance/The level of expressed mRNA in the absence of chemical substance” value (yeast gene YOL036W, incubated two hours with chemical substance) was 1.1, the “The level of expressed mRNA in the presence of chemical substance/The level of expressed mRNA in the absence of chemical substance” value (yeast gene YOL047C, incubated two hours with chemical substance) was 1.5 and the “The level of expressed mRNA in the presence of chemical substance/The level of expressed mRNA in the absence of chemical substance” value (yeast gene YOL071W, incubated two hours with chemical substance) was 1.3. For the same molecule, the “The level of expressed mRNA in the presence of chemical substance/The level of expressed mRNA in the absence of chemical substance” value (yeast gene YOL082W, incubated two hours with chemical substance) was 1.6, the “The level of expressed mRNA in the presence of chemical substance/The level of expressed mRNA in the absence of chemical substance” value (yeast gene YOL083W, incubated two hours with chemical substance) was 1.4 and the “The level of expressed mRNA in the presence of chemical substance/The level of expressed mRNA in the absence of chemical substance” value (yeast gene YOL117W, incubated two hours with chemical substance) was 1.3. For the same molecule, the “The level of expressed mRNA in the presence of chemical substance/The level of expressed mRNA in the absence of chemical substance” value (yeast gene YOL131W, incubated two hours with chemical substance) was 1.1, the “The level of expressed mRNA in the presence of chemical substance/The level of expressed mRNA in the absence of chemical substance” value (yeast gene YOL150C) was 2.7 and the “The level of expressed mRNA in the presence of chemical substance/The level of expressed mRNA in the absence of chemical substance” value (yeast gene YOL162W, incubated two hours with chemical substance) was 1.2. For the same molecule, the “The level of expressed mRNA in the presence of chemical substance/The level of expressed mRNA in the absence of chemical substance” value (yeast gene YOR019W, incubated two hours with chemical substance) was 1.7, the “The level of expressed mRNA in the presence of chemical substance/The level of expressed mRNA in the absence of chemical substance” value (yeast gene YOR197W, incubated two hours with chemical substance) was 1.5 and the “The level of expressed mRNA in the presence of chemical substance/The level of expressed mRNA in the absence of chemical substance” value (yeast gene YPL087W, incubated two hours with chemical substance) was 2.1. The “The level of expressed mRNA in the presence of chemical substance/The level of expressed mRNA in the absence of chemical substance” value (yeast gene YPL196W, incubated two hours with chemical substance) was 1.4, the “The level of expressed mRNA in the presence of chemical substance/The level of expressed mRNA in the absence of chemical substance” value (yeast gene YPL206C, incubated two hours with chemical substance) was 1.4 and the “The level of expressed mRNA in the presence of chemical substance/The level of expressed mRNA in the absence of chemical substance” value (yeast gene YPL222W, incubated two hours with chemical substance) was 1.1. The “The level of expressed mRNA in the presence of chemical substance/The level of expressed mRNA in the absence of chemical substance” value (yeast gene YPR023C, incubated two hours with chemical substance) was 1.0 and the “The level of expressed mRNA in the presence of chemical substance/The level of expressed mRNA in the absence of chemical substance” value (yeast gene YPR151C, incubated two hours with chemical substance) was 1.3.
